This is an account of results in patent publication US20220259172A1, “CHEMICAL INHIBITORS OF ID PROTEINS FOR THE TREATMENT OF CANCER AND OTHER DISEASES” (Universität Heidelberg, priority 2019, published 2022).

“Also recorded” adds a separate entry of the source.

Test [1] deals with Id3. Briefly: Compound screen: BMP4-induced Id3 expression, Western blot. Conditions: B16-F10 and Ret cells, BMP4 10 ng/ml and compound simultaneously, 24 h, rated relative to CBD. It counts as cell-based, murine. The protocol: To screen compounds with an inhibitory effect on Id1 and Id3 expression, cells were simultaneously stimulated with BMP4 (10 ng/ml, 315-27, Peprotech) and substances at the indicated concentrations for 24 h. DMSO served as a solvent control. Effects on Id1 and Id3 expression levels were analysed by Western blotting.
(§1) Western blot analysis was performed using standard methods. The following antibodies were used for protein detection: Id1 (195-14, CalBioreagents), Id3 (17-3, CalBioreagents), β-actin (AC-15, Sigma Aldrich), Vinculin (VIN-11-5, Sigma Aldrich). Protein bands were detected using HRP conjugated secondary antibodies (P0447, P0448, Agilent Technologies) and enhanced chemiluminescence (32106, Thermo Fisher Scientific).
B16-F10 and Ret melanoma cells were treated with BMP4 to induce Id1 and Id3 expression, and simultaneously treated with each of the compounds individually for a 24 h period.
(In western blotting, separated proteins are transferred to a membrane and probed.)

The next test relates to Ret melanoma cells. The test can be described thus: Tumor growth and initiation in vivo, Ret. More on the design: species or system mice. The text has this: B16-F10 (A) or Ret (B) cells were co-injected with Matrigel into syngeneic mice. […] Numbers indicate the number of animals with a tumor in each group. Bar graphs show the mean tumor volume in each group at the day when the first animal had reached the legal tumor size limit. Kaplan-Meier curves show the percentage of tumor-free animals in percent as a measure for tumor initiation.
Cells were harvested using trypsin/EDTA and washed in PBS. The indicated numbers of living melanoma cells were subcutaneously injected into the flank of syngeneic mice in 100 μl PBS. For co-injection experiments, the indicated number of living cells was resuspended in 100 μl Matrigel HC (10 mg/ml, #354262, Corning Inc.), and subcutaneously injected into the flank. Tumor volume was calculated using the formula 4/3π (d1/2×d2/2×d3/2), where d1−d3 represents the diameter of the tumor in three dimensions. […] All animal experiments were approved by the local authorities, and performed according to the German legal requirements. Tumor initiating cell (TIC) frequency and p-values were calculated using ELDA software.
To investigate the anti-tumor properties of the selected Id1/Id3-inhibiting compounds, groups of experimental mice (8 per group) were injected subcutaneously with B16-F10 or Ret melanoma cells. […] Melanoma initiation and growth was assessed over a period of 90 days.

Another test has as its system Id1. Briefly: Id1 expression in LECs, Western blot. It counts as cell-based. Conditions: indicated concentrations, 24 hours (FIG. 10B). Here is the method:
(§2) Human umbilical vein endothelial cells (HUVECs) and lymphatic endothelial cells (LECs) were cultivated in EBM™-2 Endothelial Cell Growth Basal Medium supplemented with EGM™-2 MV Microvascular Endothelial Cell Growth Medium-2 SingleQuots™ Kit (both Lonza, catalogue numbers CC-3156 and CC4176, respectively), hereafter referred to as endothelial cell growth medium. HUVECs and LECs were cultivated in the presence of the indicated concentrations of X6632, or with DMSO as a solvent control. After 24 hours, cells were harvested. Lysates were western blotted and probed with antibodies against Id1 and Id3. Western blots probed with vinculin antibodies served as loading controls.
as §1
(§3) The effect of X6632 on Id1 and Id3 expression in cultivated proliferating human umbilical vein endothelial cells (HUVECs) was investigated. […] LDN-193189, an antagonist of BMP receptor isotypes ALK2 and ALK3, served as a positive control reference for inhibition of Id1 and Id3 expression.

Test [2] deals with Id3. The test can be described thus: Id3 expression in LECs, Western blot. It counts as cell-based. Conditions: indicated concentrations, 24 hours (FIG. 10B). The protocol:
as §2, §1, §3

The test system of a further test is HUVECs. The test can be described thus: HUVEC proliferation, CyQUANT assay. It counts as cell-based, Human. Conditions: dose-dependent manner (FIG. 11). The protocol: HUVECs (A) and LECs (B) were cultivated in endothelial cell growth medium. Cells were incubated with the indicated concentrations of X6632. Incubation with DMSO served as a solvent control. After cultivation for the indicated time periods, cells were stained with a CyQUANT™ Cell Proliferation Assay Kit (Thermo Fisher Scientific). The CyQUANT™ dye emits fluorescence after excitation at 485 nm when incorporated in double-stranded DNA, allowing DNA content to be used as a measure of cell numbers. Plates were incubated for 15 min at 37° C. to allow the CyQUANT™ dye to incorporate into DNA. Fluorescence was measured by excitation at 485 nm and detection of emission at 530 nm at 25 positions in each well (signal intensity) using a Tecan Infinite M200 reader.

For the next test, the system named is HUVEC spheroids. The test can be described thus: Sprouting from HUVEC spheroids in collagen. It counts as cell-based, Human. The conditions noted are these: X6632 10 μM; 50 ng/ml hVEGF-A; 24 h; collagen type I. Here is the method:
(§4) HUVECs or LECs were resuspended in endothelial cell growth medium containing 20% methylcellulose at 1.6×10^4 cells per millilitre. Twenty-five microliters of cell suspension were pipetted as drops on non-adherent plastic plates, which were then inverted to form hanging drop cultures. Plates were incubated for 24 h at 37° C. Spheroids were harvested, then embedded in collagen type I (2 mg/ml) containing 0.5% methylcellulose. After polymerization, gels were cultivated with endothelial cell growth medium containing 50 ng/ml hVEGF-A in the presence or absence of X6632 (10 μM), or DMSO as a solvent control. Sprouting was assessed after cultivation for 24 h using microscope-based image acquisition. Representative images are shown.
(§5) To determine whether this is the case, the impact of […] on angiogenic and lymphangiogenic sprouting from endothelial cell spheriods was investigated. To this end, HUVECs and LECs were grown as spheriods in hanging drop cultures. The spheroids were then embedded in collagen. Sprouting from the spheroids in the presence and absence of X6632 was monitored using microscope-based image analysis.

In another test the test system is LEC spheroids. The test can be described thus: Sprouting from LEC spheroids in collagen. It counts as cell-based. The conditions noted are these: X6632 10 μM; 50 ng/ml hVEGF-A; 24 h; collagen type I. Here is the method:
as §4, §5

For the molecule `CCCCc1cc2c(O)cc(C3(CCCC)CCCCC3)cc2oc1=O` [X6632, 7-(1-Butylcyclohexyl)-5-hydroxy-3-butyl-2H-chromen-2-one], the “Inhibitory effect on Id3 protein expression” value was “more potent” in the test on Id3 [1] and “strongest inhibitory activities” in the test with Id3 [1] (listed as X 6632). In addition, in the test with Ret melanoma cells (Ret cells co-injected with Matrigel, syngeneic mice, daily i.p. first 14 days, compared to DMSO), the “Melanoma growth and initiation” value is “significantly inhibit; also recorded: potent inhibitors”. For the same molecule, in the test with Ret melanoma cells (Ret cells, 8 mice per group, assessed over 90 days), the “Number of mice that did not develop any tumors” value is reported as 1 mice. Besides, in the test on Ret melanoma cells (Ret experiment, daily i.p. first 14 days), the “Tumor growth and initiation compared to CBD” value was “trend towards reduced tumor initiation and growth”. In addition, the “Expression of Id1 protein” value with Id1 was “inhibits”. Besides, in the test with Id3 [2], the “Expression of Id3 protein” value is on record as “inhibits”. Besides, in the test on HUVECs, the “Proliferation of HUVECs” value was “inhibited”. Further, the “Sprouting from HUVEC spheroids” value in the test with HUVEC spheroids is recorded as “substantially inhibited”. In the test on LEC spheroids, the “Sprouting from LEC spheroids” value is given as “substantially inhibited”.
